Data on 30 compounds can be found in patent US7319109B2, “Farnesoid X receptor agonists” (Smith Kline Beecham Corporation, priority 2002, dated 2008).

This test deals with T1, Human FXRα Ligand Binding Domain (FXRα LBD) (Homo sapiens, UniProt Q96RI1).
T1 construct: polyhistidine (N); made in house; host or cells: E. coli BL21 (DE3), pRSET-A vector
T1 sequence (Q96RI1 222-472 isoform Q96RI1-2): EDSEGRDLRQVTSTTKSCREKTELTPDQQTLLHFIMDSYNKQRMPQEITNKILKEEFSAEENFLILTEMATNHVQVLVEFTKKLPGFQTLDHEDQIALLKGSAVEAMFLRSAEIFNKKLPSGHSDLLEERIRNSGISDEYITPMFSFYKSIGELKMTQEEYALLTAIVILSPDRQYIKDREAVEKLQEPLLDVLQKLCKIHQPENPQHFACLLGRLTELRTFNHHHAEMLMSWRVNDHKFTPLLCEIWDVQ
The test is described as follows: FXR Affinity Binding Assay: ligand mediated cofactor peptide (SRC-1 LCD2, 676-700) interaction, time resolved fluorescence. Particulars: FXRα LBD-APC / europium labeled SRC-1 peptide, TRF signal, at least 2 hours at room temperature; read-out: Activity (pEC50) (converted).

With `Cc1cc(OCc2c(-c3ccccc3OC(F)(F)F)noc2C(C)C)ccc1NS(=O)(=O)c1cccc(C(=O)O)c1` [Example 69, 3-({[4-({5-Isopropyl-3-[2-(trifluoromethoxy)phenyl]isoxazol-4-yl}methoxy)-2-methyl-phenyl]amino}sulfonyl)benzoic acid], the EC50 is 102 to 1000 nM.

As for `COC(=O)c1cccc(S(=O)(=O)N(C)c2ccc(OCc3c(-c4ccccc4OC(F)(F)F)noc3C(C)C)cc2Cl)c1` [Example 70, Methyl 3-{[[2-chloro-4-({5-isopropyl-3-[2-(trifluoromethoxy)phenyl]-isoxazol-4-yl}methoxy)phenyl](methyl)amino]sulfonyl}benzoate], the EC50 was 102 to 1000 nM.

For `COC(=O)c1cccc(S(=O)(=O)N(C)c2ccc(OCc3c(-c4ccccc4OC(F)(F)F)noc3C(C)C)cc2C)c1` [Example 71, Methyl 3-{[[4-({5-isopropyl-3-[2-(trifluoromethoxy)phenyl]isoxazol-4-yl}methoxy)-2-methylphenyl](methyl)amino]sulfonyl}benzoate], the EC50 was 102 to 1000 nM.

In the case of `CC(C)c1onc(-c2ccccc2OC(F)(F)F)c1COc1ccc(N(C)S(=O)(=O)c2cccc(C(=O)O)c2)c(Cl)c1` [Example 72, 3-{[[2-Chloro-4-({5-isopropyl-3-[2-(trifluoromethoxy)phenyl]isoxazol-4-yl}methoxy)-phenyl](methyl)amino]sulfonyl}benzoic acid], the EC50 was 102 to 1000 nM.

Take `Cc1cc(OCc2c(-c3ccccc3OC(F)(F)F)noc2C(C)C)ccc1N(C)S(=O)(=O)c1cccc(C(=O)O)c1` [Example 73, 3-{[[4-({5-Isopropyl-3-[2-(trifluoromethoxy)phenyl]isoxazol-4-yl}methoxy)-2-methyl-phenyl](methyl)amino]sulfonyl}benzoic acid]: the EC50 was 102 to 1000 nM.

For `CCc1onc(Cc2c(Cl)cccc2Cl)c1COc1ccc(N(C)S(=O)(=O)c2cccc(C(=O)O)c2)c(C)c1` [Example 74, 3-{[(4-{[3-(2,6-Dichlorobenzyl)-5-ethylisoxazol-4-yl]methoxy}-2-methylphenyl)(methyl)-amino]sulfonyl}benzoic acid], the EC50 was 102 to 1000 nM.

As for `COC(=O)c1ccc(OCc2ccc(OCc3c(-c4c(Cl)cccc4Cl)noc3C(C)C)cc2Cl)cc1` [Example 75, Methyl 4-[(2-chloro-4-{[3-(2,6-dichlorophenyl)-5-isopropylisoxazol-4-yl]methoxy}benzyl)oxy]benzoate], the EC50 was 102 to 1000 nM.

With `COC(=O)c1cccc(OCc2ccc(OCc3c(-c4c(Cl)cccc4Cl)noc3C(C)C)cc2Cl)c1` [Example 76, Methyl 3-[(2-chloro-4-{[3-(2,6-dichlorophenyl)-5-isopropylisoxazol-4-yl]methoxy}benzyl)-oxy]benzoate], the EC50 was 102 to 1000 nM.

On to `CC(C)c1onc(-c2c(Cl)cccc2Cl)c1COc1ccc(COc2cccc(C(=O)O)c2)c(Cl)c1` [Example 77, 3-[(2-Chloro-4-{[3-(2,6-dichlorophenyl)-5-isopropylisoxazol-4-yl]methoxy}benzyl)oxy]-benzoic acid], for which the EC50 was < 100 nM.

Consider `CC(C)c1onc(-c2c(Cl)cccc2Cl)c1COc1ccc(CSc2cccc(C(=O)O)c2)c(Cl)c1` [Example 78, 3-[(2-Chloro-4-{[3-(2,6-dichlorophenyl)-5-isopropylisoxazol-4-yl]methoxy}benzyl)thio]-benzoic acid], for which the EC50 was < 100 nM.

For `Cc1cc(OCc2c(-c3c(Cl)cccc3Cl)noc2C(C)C)ccc1COc1cccc(C(=O)O)c1` [Example 79, 3-[(4-{[3-(2,6-Dichlorophenyl)-5-isopropylisoxazol-4-yl]methoxy}-2-methylbenzyl)oxy]-benzoic acid], the EC50 was < 100 nM.

With `Cc1cc(OCc2c(-c3c(Cl)cccc3Cl)noc2C(C)C)ccc1CSc1cccc(C(=O)O)c1` [Example 80, 3-[(4-{[3-(2,6-Dichlorophenyl)-5-isopropylisoxazol-4-yl]methoxy}-2-methylbenzyl)thio]-benzoic acid], the EC50 is < 100 nM.

As to `CC(C)c1onc(-c2c(Cl)cccc2Cl)c1COc1ccc(COc2ccc(C(=O)O)cc2)c(Cl)c1` [Example 81, 4-[(2-Chloro-4-{[3-(2,6-dichlorophenyl)-5-isopropylisoxazol-4-yl]methoxy}benzyl)oxy]benzoic acid], the EC50 is < 100 nM.

Turning to `CC(C)c1onc(-c2c(Cl)cccc2Cl)c1COc1ccc(CSc2ccc(C(=O)O)cc2)c(Cl)c1` [Example 82, 4-[(2-Chloro-{[3-(2,6-dichlorophenyl)-5-isopropylisoxazol-4-yl]methoxy}benzyl)thio]-benzoic acid], the EC50 was 102 to 1000 nM.

As to `COC(=O)c1cccc(OCc2ccc(OCc3c(-c4ccccc4OC(F)(F)F)noc3C(C)C)cc2Cl)c1` [Example 83, Methyl 3-{[2-chloro-4-({5-isopropyl-3-[2-(trifluoromethoxy)-phenyl]isoxazol-4-yl}methoxy)benzyl]oxy}benzoate], the EC50 is 102 to 1000 nM.

Consider `COC(=O)c1cccc(OCc2ccc(OCc3c(-c4ccccc4OC(F)(F)F)noc3C(C)C)cc2C)c1` [Example 84, Methyl 3-{[4-({5-isopropyl-3-[2-(trifluoromethoxy)phenyl]isoxazol-4-yl}methoxy)-2-methylbenzyl]oxy}benzoate], for which the EC50 is 1020 to 10000 nM.

As for `CC(C)c1onc(-c2ccccc2OC(F)(F)F)c1COc1ccc(COc2cccc(C(=O)O)c2)c(Cl)c1` [Example 85, 3-{[2-Chloro-4-({5-isopropyl-3-[2-(trifluoromethoxy)phenyl]isoxazol-4-yl}methoxy)-benzyl]oxy}benzoic acid], the EC50 was 102 to 1000 nM.

For `Cc1cc(OCc2c(-c3ccccc3OC(F)(F)F)noc2C(C)C)ccc1COc1cccc(C(=O)O)c1` [Example 86, 3-{[4-({5-Isopropyl-3-[2-(trifluoromethoxy)phenyl]isoxazol-4-yl}methoxy)-2-methyl-benzyl]oxy}benzoic acid], the EC50 is 102 to 1000 nM.

Regarding `CCc1onc(Cc2c(Cl)cccc2Cl)c1COc1ccc(COc2cccc(C(=O)O)c2)c(Cl)c1` [Example 87, 3-[(2-Chloro-4-{[3-(2,6-dichlorobenzyl)-5-ethylisoxazol-4-yl]methoxy}benzyl)oxy]benzoic acid], the EC50 was 102 to 1000 nM.

Consider `COC(=O)c1cccc(SCc2ccc(OCc3c(-c4ccccc4OC(F)(F)F)noc3C(C)C)cc2Cl)c1` [Example 88, Methyl 3-{[2-chloro-4-({5-isopropyl-3-[2-(trifluoro-methoxy)phenyl]isoxazol-4-yl}methoxy)benzyl]thio}benzoate], for which the EC50 was 102 to 1000 nM.

Take `COC(=O)c1cccc(SCc2ccc(OCc3c(-c4ccccc4OC(F)(F)F)noc3C(C)C)cc2C)c1` [Example 89, Methyl 3-{[4-({5-isopropyl-3-[2-(trifluoromethoxy)phenyl]isoxazol-4-yl}methoxy)-2-methylbenzyl]thio}benzoate]: the EC50 is 102 to 1000 nM.

Take `CC(C)c1onc(-c2ccccc2OC(F)(F)F)c1COc1ccc(CSc2cccc(C(=O)O)c2)c(Cl)c1` [Example 90, 3-{[2-Chloro-4-({5-isopropyl-3-[2-(trifluoromethoxy)phenyl]isoxazol-4-yl}methoxy)-benzyl]thio}benzoic acid]: the EC50 is 102 to 1000 nM.

`Cc1cc(OCc2c(-c3ccccc3OC(F)(F)F)noc2C(C)C)ccc1CSc1cccc(C(=O)O)c1` [Example 91, 3-{[4-({5-Isopropyl-3-[2-(trifluoromethoxy)phenyl]isoxazol-4-yl}methoxy)-2-methyl-benzyl]thio}benzoic acid]: the EC50 was 102 to 1000 nM.

On to `COC(=O)c1cccc(N(C)Cc2ccc(OCc3c(-c4c(Cl)cccc4Cl)noc3C(C)C)cc2Cl)c1` [Example 92, Methyl 3-[(2-chloro-4-{[3-(2,6-dichlorophenyl)-5-isopropylisoxazol-4-yl]methoxy}benzyl)(methyl)amino]benzoate], for which the EC50 is 102 to 1000 nM.

As to `CC(C)c1onc(-c2c(Cl)cccc2Cl)c1COc1ccc(CN(C)c2cccc(C(=O)O)c2)c(Cl)c1` [Example 93, 3-[(2-Chloro-4-{[3-(2,6-dichlorophenyl)-5-isopropylisoxazol-4-yl]methoxy}benzyl)(methyl)amino]benzoic acid], the EC50 is 102 to 1000 nM.

Turning to `CC(C)c1onc(-c2c(Cl)cccc2Cl)c1COc1ccc(CNc2cccc(C(=O)O)c2)c(Cl)c1` [Example 94, 3-[(2-Chloro-4-{[3-(2,6-dichlorophenyl)-5-isopropylisoxazol-4-yl]methoxy}benzyl)amino]benzoic acid], the EC50 is 102 to 1000 nM.

As to `CCOC(=O)c1cccc(NCc2ccc(OCc3c(-c4ccccc4OC(F)(F)F)noc3C(C)C)cc2Cl)c1` [Example 95, Ethyl 3-{[2-chloro-4-({5-isopropyl-3-[2-(trifluoromethoxy)phenyl]-4-isoxazolyl}methoxy)benzyl]amino}benzoate], the EC50 is 102 to 1000 nM.

With `CC(C)c1onc(-c2ccccc2OC(F)(F)F)c1COc1ccc(CNc2cccc(C(=O)O)c2)c(Cl)c1` [Example 96, 3-{[2-Chloro-4-({5-isopropyl-3-[2-(trifluoromethoxy)phenyl]-4-isoxazolyl}methoxy)benzyl]amino}benzoic acid], the EC50 was 102 to 1000 nM.

For `CC(C)c1onc(-c2ccccc2OC(F)(F)F)c1COc1ccc(CN(C)c2cccc(C(=O)O)c2)c(Cl)c1` [Example 97, 3-[[2-Chloro-4-({5-isopropyl-3-[2-(trifluoromethoxy)phenyl]-4-isoxazolyl}methoxy)benzyl](methyl)amino]benzoic acid], the EC50 was 102 to 1000 nM.

On to `COC(=O)c1ccc(COc2ccc(OCc3c(-c4c(Cl)cccc4Cl)noc3C(C)C)cc2C)cc1` [Example 98, Methyl 4-[(4-{[3-(2,6-dichlorophenyl)-5-isopropylisoxazol-4-yl]methoxy}-2-methylphenoxy)methyl]benzoate], for which the EC50 was 1020 to 10000 nM.
